{"source": "patent US20090215775A1", "about": "“Sulphonamido-Substituted Cyclohexyl Sulphones for Treatment of Cancer” (priority 2005, published 2009)", "system": "Cells expressing Notch (ALL-SIL, DND-41, HPB-ALL or TALL-1)", "test": "Assay for Cell Cycle Arrest (propidium iodide, FACS)", "assay_type": "cell-based", "details": "concentrations up to 10 μM; incubation typically 4-8 days; in comparison to untreated controls", "method": "Cells expressing Notch (ALL-SIL, DND-41, HPB-ALL or TALL-1) (Weng et al, Science, 306 (2004), 269-71) are incubated in the presence or absence of a compound of the instant invention (e.g. the compound of Example 47 below) at concentrations up to 10 μM. At the end of the incubation (typically 4-8 days), the cells are collected, fixed in 70% ethanol on ice for >2 hours, washed, then labelled for 15 min at 37° C. with propidium iodide (0.2 mg/ml) (PI) in the presence of 0.1% Triton X100 and 0.2 mg/ml RNase and subjected to FACS analysis.", "data": [{"smiles": "O=S(=O)(N[C@H]1CC[C@@](c2cc(F)ccc2F)(S(=O)(=O)c2ccc(Cl)cc2)CC1)C(F)(F)F", "note": "[Example 47, trifluoromethanesulfonic acid, N-[4-(4-chlorobenzenesulfonyl)-4-(2,5-difluorophenyl)-cyclohexyl]-amide]", "values": [{"measurement": "G2- and S-phase populations (FACS analysis)", "value": "severe loss of G2- and S-phase populations"}]}]}
